The values that follow are results of earlier work, collected in patent publication US9622976B2, “Pharmaceutical composition” (LEK PHARMACEUTICALS D.D., priority 2006, dated 2017).

For this series the following is noted: pH 6.8 phosphate buffer.

Regarding `CCCc1nc2c(C)cc(-c3nc4ccccc4n3C)cc2n1Cc1ccc(-c2ccccc2C(=O)O)cc1` [Telmisartan, 2-[4-[[4-methyl-6-(1-methylbenzoimidazol-2-yl)-2-propyl-benzoimidazol-1-yl]methyl]phenyl]benzoic acid], the solubility is reported as at most 2 μg per ml.
